Test results from US11760750B1, “Process for preparing levoketoconazole” (Nuray Chemicals Private Limited, priority 2022, dated 2023).

Assays:
[1] = Powder flow of crystalline levoketoconazole: bulk density, tapped density, Hausner Ratio, Carr Index (USP <1174>); type: physicochemical
Experimental: The Hausner Ratio is a value calculated by dividing the tapped density of the levoketoconazole by the freely settled bulk density of the levoketoconazole. The freely settled bulk density is calculated by pouring a known weight of material into a measuring cylinder and recording the volume. The tapped density is calculated by tapping the cylinder against a surface for a specified numbers of times and recording again the new volume.
The Carr (or Compressibility) Index is frequently used in pharmaceutics as an indication of the compressibility of a powder. The Carr Index may be calculated by dividing the difference of the tapped and bulk densities by the tapped density and then multiplying by 100. In a free-flowing powder, the bulk density and tapped density would be close in value; therefore, the Carr Index would be small. On the other hand, in a poor-flowing powder where there are greater interparticle interactions, the difference between the bulk and tapped density observed would be greater, therefore, the Carr Index would be larger.

Solubility in water = type: physicochemical

With `CC(=O)N1CCN(c2ccc(OC[C@@H]3CO[C@@](Cn4ccnc4)(c4ccc(Cl)cc4Cl)O3)cc2)CC1` [crystalline levoketoconazole, (2S,4R)-cis-1-acetyl-4-[4-[[2-(2,4-dichlorophenyl)-2-(1H-imidazol-1-ylmethyl)-1,3-dioxolan-4-yl]methoxyl]phenyl] piperazine] the “Carr Index (Compressibility Index)” value [1] was “below 15”, the “flowability (flow character by Hausner Ratio)” value [1] was “good” and the bulk density ([1]; 100 g sample, 250 mL graduated cylinder) was “about 0.576 g/mL”. For the same molecule, the “Hausner Ratio” value ([1]; 500 taps) was 1.120, the “Hausner Ratio” value ([1]; 1250 taps) was 1.18 and the tapped density ([1]; after 500 taps) was “about 0.686 g/mL”. The tapped density ([1]; after 1,250 taps) was “about 0.681 g/mL” and the solubility in water (Solubility in water) was “poorly soluble in water”.
